Data as given in the supplement of paper PMC5908809.

Key:
Assay in all cases: relative IC50 (inflection point of fitted viability curve, relative to fitted max inhibition); higher = less sensitive
Conditions in all cases: 72 h
[1] = system: NK-92 (IL-2 2.5 ng/mL)
Protocol: (§1)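 Drug sensitivity and resistance testing: 5 concentrations over a 10,000-fold range, 72 h at 37 °C, viability by CellTiter-Glo normalised to DMSO and benzethonium chloride controls. IC50 is the inflection point of a logistic fit (min fixed at 0, max fitted), so it is relative to the fitted maximal inhibition. Kept only where fitted max inhibition is at least 50%.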

[2] = system: YT (IL-2 2.5 ng/mL)
Protocol: as §1

[3] = system: KAI3 (IL-2 2.5 ng/mL)
Protocol: as §1

[4] = system: normal primary NK cells, pool 2 (3 donors) (IL-2 2.5 ng/mL)
Protocol: as §1

[5] = system: normal primary NK cells, pool 1 (3 donors) (IL-2 2.5 ng/mL)
Protocol: as §1

[6] = system: normal primary NK cells, pool 1 (3 donors), resting (IL-2 0 ng/mL)
Protocol: as §1

[7] = system: normal primary NK cells, pool 3 (3 donors) (IL-2 2.5 ng/mL)
Protocol: as §1

[8] = system: SNK-6 (IL-2 2.5 ng/mL)
Protocol: as §1

[9] = system: KHYG-1 (IL-2 2.5 ng/mL)
Protocol: as §1

[10] = system: NKL (IL-2 2.5 ng/mL)
Protocol: as §1

[11] = system: NK-YS (IL-2 2.5 ng/mL)
Protocol: as §1

[12] = system: IMC-1 (IL-2 20 ng/mL)
Protocol: as §1

[13] = system: DERL-7 (IL-2 2.5 ng/mL)
Protocol: as §1

| SMILES | relative IC50 [1] [µM] | relative IC50 [2] [µM] | relative IC50 [3] [µM] | relative IC50 [4] [µM] | relative IC50 [5] [µM] | relative IC50 [6] [µM] | relative IC50 [7] [µM] | relative IC50 [8] [µM] | relative IC50 [9] [µM] | relative IC50 [10] [µM] | relative IC50 [11] [µM] | relative IC50 [12] [µM] | relative IC50 [13] [µM] |
| --- | --- | --- | --- | --- | --- | --- | --- | --- | --- | --- | --- | --- | --- |
| Cc1c2oc3c(C)ccc(C(=O)N[C@@H]4C(=O)N[C@H](C(C)C)C(=O)N5CCC[C@H]5C(=O)N(C)CC(=O)N(C)[C@@H](C(C)C)C(=O)O[C@@H]4C)c3nc-2c(C(=O)N[C@@H]2C(=O)N[C@H](C(C)C)C(=O)N3CCC[C@H]3C(=O)N(C)CC(=O)N(C)[C@@H](C(C)C)C(=O)O[C@@H]2C)c(N)c1=O [Dactinomycin] | 0.0247 | 0.00098 | 0.00477 | 0.00598 | 0.0134 | 0.00439 | 0.0127 | 0.00027 | 0.00249 | 0.00068 | 0.00055 | 0.0122 | 0.00143 |
| COc1ccc(C[C@H](NC(=O)[C@H](C)NC(=O)CN2CCOCC2)C(=O)N[C@@H](Cc2ccccc2)C(=O)C2(C)CO2)cc1 (stereo in doubt) [ONX-0914] | 0.0244 | 0.0647 | 0.0181 | 0.0274 | 0.0307 | 0.0201 | 0.0618 | 0.0626 | 0.142 | 0.029 | 0.0381 | 0.158 | 0.0187 |
| Nc1ncnc2c1nc(N)n2[C@@H]1O[C@H](CO)[C@@H](O)[C@H]1O [8-amino-adenosine] | 0.431 | 0.862 | 0.32 | 5.81 | 6.68 | 13.1 | 6.78 | 0.0681 | 0.836 | 0.36 | 0.757 | 1.08 | 0.489 |
| CN(c1ccccc1CNc1nc(Nc2ccc3c(c2)CC(=O)N3)ncc1C(F)(F)F)S(C)(=O)=O | 1.71 | 1.47 | 1.38 | 1.72 | 1.13 | 4.29 | 1.95 | 1.6 | 0.553 | 0.715 | 1.03 | 1.13 | 0.609 |
| O=C(/C=C\n1cnc(-c2cc(C(F)(F)F)cc(C(F)(F)F)c2)n1)NNc1cnccn1 [Selinexor] | 0.168 | 0.0641 | 0.0933 | 0.0524 | 0.0767 | 0.0242 | 0.0808 | 0.0483 | 0.152 | 0.106 | 0.166 | 0.497 | 0.0651 |
| Cc1[nH]c2ccccc2c1CCNCc1ccc(/C=C/C(=O)NO)cc1 [Panobinostat] | 0.0134 | 0.0212 | 0.00594 | 0.00738 | 0.0129 | 0.00589 | 0.0135 | 0.0143 | 0.0163 | 0.00813 | 0.0175 | 0.0299 | 0.0125 |
| O=C(/C=C/c1cccnc1)NCCCCC1CCN(C(=O)c2ccccc2)CC1 [Daporinad] | 0.00607 | 0.00627 | 0.00388 | 0.00063 | 0.00052 | 0.00029 | 0.00087 | 0.00075 | 0.00301 | 0.00257 | 0.00077 | 0.00361 | 0.00127 |
